Assay results reported in patent US10189841B2, “Purinones as ubiquitin-specific protease 1 inhibitors” (Forma Therapeutics, Inc., priority 2015, dated 2019).

Target: USP1 (construct USP1 (I-785, GG670, 671AA)/UAF1 (I-677)-Flag) (Homo sapiens (Human), UniProt O94782, G670A/G671A)
Experiment: Ubiquitin-Rhodamine 110 assay for USP1 activity
Assay type: biochemical
Details: USP1/UAF1 25 pM, Ub-Rh110 25 nM, 30 min preincubation
In short: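 Two formats with the USP1/UAF1 complex and 25 nM ubiquitin-rhodamine 110 in pH 8.0 Tris buffer with calcium, glutathione and detergent. Single-point screening used 10 µM, 100 pM enzyme and 45 min. Inhibition was set against no-enzyme and DMSO wells.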

USP1 (construct USP1 (I-785, GG670, 671AA)/UAF1 (I-677)-Flag), sequence (O94782 whole entry G670A/G671A): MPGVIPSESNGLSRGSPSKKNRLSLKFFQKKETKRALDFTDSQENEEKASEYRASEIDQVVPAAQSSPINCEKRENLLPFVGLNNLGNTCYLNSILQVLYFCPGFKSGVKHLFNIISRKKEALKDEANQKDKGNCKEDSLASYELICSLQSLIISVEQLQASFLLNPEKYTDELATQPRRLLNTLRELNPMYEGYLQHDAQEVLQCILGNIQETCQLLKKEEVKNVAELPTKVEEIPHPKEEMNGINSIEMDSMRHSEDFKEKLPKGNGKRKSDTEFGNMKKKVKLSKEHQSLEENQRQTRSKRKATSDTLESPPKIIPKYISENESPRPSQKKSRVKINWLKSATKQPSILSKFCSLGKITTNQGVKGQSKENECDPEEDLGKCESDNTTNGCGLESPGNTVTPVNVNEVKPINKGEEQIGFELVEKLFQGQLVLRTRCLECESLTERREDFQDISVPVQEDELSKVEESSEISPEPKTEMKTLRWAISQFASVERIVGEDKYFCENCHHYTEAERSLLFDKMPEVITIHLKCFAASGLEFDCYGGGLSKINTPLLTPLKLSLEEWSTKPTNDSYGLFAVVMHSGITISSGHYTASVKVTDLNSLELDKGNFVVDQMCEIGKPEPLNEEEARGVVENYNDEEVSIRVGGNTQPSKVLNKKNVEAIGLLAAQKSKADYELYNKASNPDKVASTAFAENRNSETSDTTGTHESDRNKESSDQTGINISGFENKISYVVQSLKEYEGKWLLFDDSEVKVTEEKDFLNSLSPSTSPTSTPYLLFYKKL
USP1 (construct USP1 (I-785, GG670, 671AA)/UAF1 (I-677)-Flag), sequence (Q8TAF3 whole entry partner): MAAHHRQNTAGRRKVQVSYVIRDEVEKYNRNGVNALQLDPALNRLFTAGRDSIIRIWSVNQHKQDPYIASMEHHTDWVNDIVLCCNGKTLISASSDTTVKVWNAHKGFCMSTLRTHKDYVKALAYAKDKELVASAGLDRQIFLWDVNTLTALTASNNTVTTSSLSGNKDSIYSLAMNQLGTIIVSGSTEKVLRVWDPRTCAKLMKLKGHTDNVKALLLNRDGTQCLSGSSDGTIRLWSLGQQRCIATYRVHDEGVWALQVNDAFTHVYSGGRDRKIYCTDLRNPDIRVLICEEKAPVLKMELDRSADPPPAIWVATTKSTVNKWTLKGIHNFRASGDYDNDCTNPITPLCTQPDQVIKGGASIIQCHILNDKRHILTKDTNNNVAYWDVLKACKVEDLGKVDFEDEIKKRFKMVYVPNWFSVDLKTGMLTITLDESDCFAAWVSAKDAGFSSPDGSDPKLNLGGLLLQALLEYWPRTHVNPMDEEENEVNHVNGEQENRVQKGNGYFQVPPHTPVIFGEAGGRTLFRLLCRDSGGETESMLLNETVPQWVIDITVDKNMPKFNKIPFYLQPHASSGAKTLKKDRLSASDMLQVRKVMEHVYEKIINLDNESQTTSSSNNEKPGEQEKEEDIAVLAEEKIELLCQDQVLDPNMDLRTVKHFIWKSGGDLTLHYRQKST

SMILES	IC50
CC(C)c1ccccc1-c1ncc2[nH]c(=O)n(Cc3ccc(-c4cnn(C5CCNCC5)c4)cc3)c2n1 [Compound I-540, 2-(2-isopropylphenyl)-9-(4-(1-(piperidin-4-yl)-1H-pyrazol-4-yl)benzyl)-7,9-dihydro-8H-purin-8-one]	200 to 2000 nM
CC(C)c1ccccc1-c1ncc2c(n1)n(Cc1ccc(-c3nc(C#N)cn3C)cc1)c(=O)n2C [Compound I-541, 2-(4-((2-(2-Isopropylphenyl)-7-methyl-8-oxo-7,8-dihydro-9H-purin-9-yl)methyl)phenyl)-1-methyl-1H-imidazole-4-carbonitrile]	< 50 nM
Cc1cc(CO)n(-c2ccc(Cn3c(=O)[nH]c4cnc(-c5ccccc5C5CC5)nc43)cc2)n1 [Compound I-542, 2-(2-Cyclopropylphenyl)-9-(4-(5-(hydroxymethyl)-3-methyl-1H-pyrazol-1-yl)benzyl)-7,9-dihydro-8H-purin-8-one]	< 50 nM
COC(=O)N1CCC(c2ccn(-c3ccc(Cn4c(=O)[nH]c5cnc(-c6ccccc6C(C)C)nc54)cc3)n2)CC1 [Compound I-543, Methyl 4-(1-(4-((2-(2-isopropylphenyl)-8-oxo-7,8-dihydro-9H-purin-9-yl)methyl)phenyl)-1H-pyrazol-3-yl)piperidine-1-carboxylate]	< 50 nM
CC(O)c1ccccc1-c1ncc2[nH]c(=O)n(Cc3ccc(-c4nc(C(F)(F)F)cn4C)cc3)c2n1 (centres unmarked) [Compound I-544, 2-(2-(1-Hydroxyethyl)phenyl)-9-(4-(1-methyl-4-(trifluoromethyl)-1H-imidazol-2-yl)benzyl)-7,9-dihydro-8H-purin-8-one]	50 to 200 nM
